Assay results reported in US8741903B2, “Organic compound for use in the treatment of hepatocellular cancer (HCC)” (priority 2010, dated 2014).
Read-outs that look alike come from different tables or passages of the source.

Key:
[1] = system: HUH7 human HCC xenografts; type: in vivo; details: 21 days, HUH7 xenograft
Method: 12 days after the injection of tumor cells the tumor volumes are 138±24 mm^3.
Each group contains 8 animals. […] The application volumes in all experiments were 10 ml/kg.

[2] = system: PLC/PFR/5 human HCC xenografts; experiment: PLC/PFR/5 human HCC subcutaneous xenograft in female nude mice; details: 24 days; for % T/C (ΔT/ΔC %, tumor volume): PLC/PFR/5 xenograft
unresectable HCC = details: 1st line treatment, patients with unresectable HCC; cited from earlier work
HCC = HCC patients of Asia-Pacific region; cited from earlier work
[3] = 50 mg/kg p.o. qd, statistically significant

Structure (SMILES)	% T/C (ΔT/ΔC %, tumor volume) ([1]; 10 mg/kg p.o. qd) [%]	% T/C (ΔT/ΔC %, tumor volume) ([1]; 30 mg/kg p.o. qd, statistically significant) [%]	% T/C (ΔT/ΔC %, tumor volume) [1, 3] [%]	% T/C (ΔT/ΔC %, tumor volume) ([2]; 10 mg/kg p.o. qd) [%]	% T/C (ΔT/ΔC %, tumor volume) ([2]; 30 mg/kg p.o. qd) [%]	% T/C (ΔT/ΔC %, tumor volume) [2, 3] [%]	effect on body weight as compared to the vehicle-treated group ([2]; 10, 30 and 50 mg/kg p.o. qd)	median overall survival (unresectable HCC) [months]	median overall survival (HCC) [months]
CN1CCN(c2ccc3nc(-c4c(N)c5c(F)cccc5[nH]c4=O)[nH]c3c2)CC1 [Compound I, 4-amino-5-fluoro-3-[6-(4-methylpiperazin-1-yl)-1H-benzimidazol-2-yl]-1H-quinolin-2-one]	75	40	20	67	47	19	no significant effect on body weight		
CNC(=O)c1cc(Oc2ccc(NC(=O)Nc3ccc(Cl)c(C(F)(F)F)c3)cc2)ccn1 [sorafenib]								10.7	6.5
